Where two headings read alike, the source gives them in different places.
How the values were obtained:
[1] = test system: EKVX (Non-Small Cell Lung Cancer); experiment: NCI DTP tumor cell line screen (SRB), EKVX
Procedure: (§1) For a typical screening experiment, cells are inoculated into 96 well microtiter plates in 100 μL at plating densities ranging from 5,000 to 40,000 cells/well depending on the doubling time of individual cell lines. After cell inoculation, the microtiter plates are incubated at 37° C., 5% CO2, 95% air and 100% relative humidity for 24 h prior to addition of experimental drugs.
(§2) After 24 h, two plates of each cell line are fixed in situ with TCA, to represent a measurement of the cell population for each cell line at the time of drug addition (Tz). Experimental drugs are solubilized in dimethyl sulfoxide at 400-fold the desired final maximum test concentration and stored frozen prior to use. At the time of drug addition, an aliquot of frozen concentrate is thawed and diluted to twice the desired final maximum test concentration with complete medium containing 50 μg/ml gentamicin. Additional four, 10-fold or ½ log serial dilutions are made to provide a total of five drug concentrations plus control. Aliquots of 100 μl of these different drug dilutions are added to the appropriate microtiter wells already containing 100 μl of medium, resulting in the required final drug concentrations.
(§3) Following drug addition, the plates are incubated for an additional 48 h at 37° C., 5% CO2, 95% air, and 100% relative humidity. For adherent cells, the assay is terminated by the addition of cold TCA. Cells are fixed in situ by the gentle addition of 50 μl of cold 50% (w/v) TCA (final concentration, 10% TCA) and incubated for 60 minutes at 4° C. The supernatant is discarded, and the plates are washed five times with tap water and air dried. Sulforhodamine B (SRB) solution (1001) at 0.4% (w/v) in 1% acetic acid is added to each well, and plates are incubated for 10 minutes at room temperature. After staining, unbound dye is removed by washing five times with 1% acetic acid and the plates are air dried. Bound stain is subsequently solubilized with 10 mM trizma base, and the absorbance is read on an automated plate reader at a wavelength of 515 nm. For suspension cells, the methodology is the same except that the assay is terminated by fixing settled cells at the bottom of the wells by gently adding 50 μl of 80% TCA (final concentration, 16% TCA). Using the seven absorbance measurements [time zero, (Tz), control growth, (C), and test growth in the presence of drug at the five concentration levels (Ti)], the percentage growth is calculated at each of the drug concentrations levels. Percentage growth inhibition is calculated as: [(Ti−Tz)/(C−Tz)]×100 for concentrations for which Ti>/=Tz [(Ti−Tz)/Tz]×100 for concentrations for which Ti<Tz
(§4) Three dose response parameters are calculated for each experimental agent. […] The drug concentration resulting in total growth inhibition (TGI) is calculated from Ti=Tz. […] Values are calculated for each of these three parameters if the level of activity is reached; however, if the effect is not reached or is exceeded, the value for that parameter is expressed as greater or less than the maximum or minimum concentration tested.

[2] = test system: A498 (Renal Cancer); experiment: NCI DTP tumor cell line screen (SRB), A498
Procedure: as §1, §2, §3, §4

[3] = test system: ACHN (Renal Cancer); experiment: NCI DTP tumor cell line screen (SRB), ACHN
Procedure: as §1, §2, §3, §4

[4] = test system: TK-10 (Renal Cancer); experiment: NCI DTP tumor cell line screen (SRB), TK-10
Procedure: as §1, §2, §3, §4

[5] = test system: UO-31 (Renal Cancer); experiment: NCI DTP tumor cell line screen (SRB), UO-31
Procedure: as §1, §2, §3, §4

[6] = test system: T-47D (Breast Cancer); experiment: NCI DTP tumor cell line screen (SRB), T-47D
Procedure: as §1, §2, §3, §4

[7] = test system: MOLT-4 (Leukemia); experiment: NCI DTP tumor cell line screen (SRB), MOLT-4
Procedure: as §1, §2, §3, §4

[8] = test system: HOP-62 (Non-Small Cell Lung Cancer); experiment: NCI DTP tumor cell line screen (SRB), HOP-62
Procedure: as §1, §2, §3, §4

[9] = test system: DU-145 (Prostate Cancer); experiment: NCI DTP tumor cell line screen (SRB), DU-145
Procedure: as §1, §2, §3, §4

[10] = test system: HS 578T (Breast Cancer); experiment: NCI DTP tumor cell line screen (SRB), HS 578T
Procedure: as §1, §2, §3, §4

[11] = test system: NCI-H522 (Non-Small Cell Lung Cancer)
Procedure: as §1, §2, §3, §4

[12] = test system: LOX IMVI (Melanoma); experiment: NCI DTP tumor cell line screen (SRB), LOX IMVI
Procedure: as §1, §2, §3, §4

[13] = test system: MALME-3M (Melanoma); experiment: NCI DTP tumor cell line screen (SRB), MALME-3M
Procedure: as §1, §2, §3, §4

[14] = test system: SK-MEL-2 (Melanoma); experiment: NCI DTP tumor cell line screen (SRB), SK-MEL-2
Procedure: as §1, §2, §3, §4

[15] = test system: MDA-MB-435 (Breast Cancer); experiment: NCI DTP tumor cell line screen (SRB), MDA-MB-435
Procedure: as §1, §2, §3, §4

[16] = test system: NCI/ADR-RES (Breast Cancer)
Procedure: as §1, §2, §3, §4

NCC(=O)Nc1ccc(-n2nc(C(F)(F)F)cc2-c2ccc3c(ccc4ccccc43)c2)cc1 [Compound 70, 2-Amino-N-{4-[5-(2-phenanthrenyl)-3-(trifluoromethyl)-1H-pyrazol-1-yl]-phenyl}-acetamide]
TGI [1]: 3.25E−06
Mean Optical Densities ([1]; Log10 Concentration −4.0): 0.193
Mean Optical Densities ([1]; Log10 Concentration −5.0): 0.156
Percent Growth ([1]; Log10 Concentration −5.0): −72%
Mean Optical Densities ([1]; Log10 Concentration −6.0): 0.786
Percent Growth ([1]; Log10 Concentration −6.0): 75%
Mean Optical Densities ([1]; Log10 Concentration −7.0): 0.860
Percent Growth ([1]; Log10 Concentration −7.0): 100%
Mean Optical Densities ([1]; Log10 Concentration −8.0): 0.891
Percent Growth ([1]; Log10 Concentration −8.0): 110%
TGI [2]: 5.75E−06
Mean Optical Densities ([2]; Log10 Concentration −4.0): 0.433
Mean Optical Densities ([2]; Log10 Concentration −5.0): 0.660
Percent Growth ([2]; Log10 Concentration −5.0): −30%
Mean Optical Densities ([2]; Log10 Concentration −6.0): 2.201
Percent Growth ([2]; Log10 Concentration −6.0): 95%
Mean Optical Densities ([2]; Log10 Concentration −7.0): 2.598
Percent Growth ([2]; Log10 Concentration −7.0): 126%
Mean Optical Densities ([2]; Log10 Concentration −8.0): 2.230
Percent Growth ([2]; Log10 Concentration −8.0): 98%
TGI [3]: 3.45E−06
Mean Optical Densities ([3]; Log10 Concentration −4.0): 0.313
Mean Optical Densities ([3]; Log10 Concentration −5.0): 0.150
Percent Growth ([3]; Log10 Concentration −5.0): −60%
Mean Optical Densities ([3]; Log10 Concentration −6.0): 0.829
Percent Growth ([3]; Log10 Concentration −6.0): 70%
Mean Optical Densities ([3]; Log10 Concentration −7.0): 1.037
Percent Growth ([3]; Log10 Concentration −7.0): 102%
Mean Optical Densities ([3]; Log10 Concentration −8.0): 0.985
Percent Growth ([3]; Log10 Concentration −8.0): 94%
TGI [4]: 3.10E−06
Mean Optical Densities ([4]; Log10 Concentration −4.0): 0.200
Mean Optical Densities ([4]; Log10 Concentration −5.0): 0.138
Percent Growth ([4]; Log10 Concentration −5.0): −80%
Mean Optical Densities ([4]; Log10 Concentration −6.0): 1.304
Percent Growth ([4]; Log10 Concentration −6.0): 77%
Mean Optical Densities ([4]; Log10 Concentration −7.0): 1.492
Percent Growth ([4]; Log10 Concentration −7.0): 100%
Mean Optical Densities ([4]; Log10 Concentration −8.0): 1.512
Percent Growth ([4]; Log10 Concentration −8.0): 102%
TGI [5]: 3.29E−06
Mean Optical Densities ([5]; Log10 Concentration −4.0): 0.285
Mean Optical Densities ([5]; Log10 Concentration −5.0): 0.161
Percent Growth ([5]; Log10 Concentration −5.0): −64%
Mean Optical Densities ([5]; Log10 Concentration −6.0): 1.356
Percent Growth ([5]; Log10 Concentration −6.0): 68%
Mean Optical Densities ([5]; Log10 Concentration −7.0): 1.563
Percent Growth ([5]; Log10 Concentration −7.0): 84%
Mean Optical Densities ([5]; Log10 Concentration −8.0): 1.572
Percent Growth ([5]; Log10 Concentration −8.0): 84%
TGI [6]: 4.21E−06
Mean Optical Densities ([6]; Log10 Concentration −4.0): 0.238
Mean Optical Densities ([6]; Log10 Concentration −5.0): 0.205
Percent Growth ([6]; Log10 Concentration −5.0): −52%
Mean Optical Densities ([6]; Log10 Concentration −6.0): 0.935
Percent Growth ([6]; Log10 Concentration −6.0): 86%
Mean Optical Densities ([6]; Log10 Concentration −7.0): 1.071
Percent Growth ([6]; Log10 Concentration −7.0): 109%
Mean Optical Densities ([6]; Log10 Concentration −8.0): 0.921
Percent Growth ([6]; Log10 Concentration −8.0): 84%
TGI [7]: 3.10E−06
Mean Optical Densities ([7]; Log10 Concentration −4.0): 0.296
Mean Optical Densities ([7]; Log10 Concentration −5.0): 0.180
Percent Growth ([7]; Log10 Concentration −5.0): −42%
Mean Optical Densities ([7]; Log10 Concentration −6.0): 0.614
Percent Growth ([7]; Log10 Concentration −6.0): 41%
Mean Optical Densities ([7]; Log10 Concentration −7.0): 0.951
Percent Growth ([7]; Log10 Concentration −7.0): 87%
Mean Optical Densities ([7]; Log10 Concentration −8.0): 0.964
Percent Growth ([7]; Log10 Concentration −8.0): 89%
TGI [8]: 3.01E−06
Mean Optical Densities ([8]; Log10 Concentration −4.0): 0.217
Mean Optical Densities ([8]; Log10 Concentration −5.0): 0.155
Percent Growth ([8]; Log10 Concentration −5.0): −70%
Mean Optical Densities ([8]; Log10 Concentration −6.0): 1.075
Percent Growth ([8]; Log10 Concentration −6.0): 64%
Mean Optical Densities ([8]; Log10 Concentration −7.0): 1.330
Percent Growth ([8]; Log10 Concentration −7.0): 93%
Mean Optical Densities ([8]; Log10 Concentration −8.0): 1.310
Percent Growth ([8]; Log10 Concentration −8.0): 90%
TGI [9]: 3.47E−06
Mean Optical Densities ([9]; Log10 Concentration −4.0): 0.132
Mean Optical Densities ([9]; Log10 Concentration −5.0): 0.078
Percent Growth ([9]; Log10 Concentration −5.0): −76%
Mean Optical Densities ([9]; Log10 Concentration −6.0): 0.895
Percent Growth ([9]; Log10 Concentration −6.0): 90%
Mean Optical Densities ([9]; Log10 Concentration −7.0): 1.018
Percent Growth ([9]; Log10 Concentration −7.0): 109%
Mean Optical Densities ([9]; Log10 Concentration −8.0): 0.993
Percent Growth ([9]; Log10 Concentration −8.0): 105%
TGI [10]: 5.25E−06
Mean Optical Densities ([10]; Log10 Concentration −4.0): 0.333
Mean Optical Densities ([10]; Log10 Concentration −5.0): 0.351
Mean Optical Densities ([10]; Log10 Concentration −6.0): 1.110
Mean Optical Densities ([10]; Log10 Concentration −7.0): 1.179
Mean Optical Densities ([10]; Log10 Concentration −8.0): 1.221
TGI [11]: 3.94E−06
Mean Optical Densities ([11]; Log10 Concentration −4.0): 0.486
Mean Optical Densities ([11]; Log10 Concentration −5.0): 0.260
Percent Growth ([11]; Log10 Concentration −5.0): −66%
Mean Optical Densities ([11]; Log10 Concentration −6.0): 1.528
Percent Growth ([11]; Log10 Concentration −6.0): 97%
Mean Optical Densities ([11]; Log10 Concentration −7.0): 1.718
Percent Growth ([11]; Log10 Concentration −7.0): 122%
Mean Optical Densities ([11]; Log10 Concentration −8.0): 1.626
Percent Growth ([11]; Log10 Concentration −8.0): 110%
TGI [12]: 3.07E−06
Mean Optical Densities ([12]; Log10 Concentration −4.0): 0.352
Mean Optical Densities ([12]; Log10 Concentration −5.0): 0.176
Percent Growth ([12]; Log10 Concentration −5.0): −50%
Mean Optical Densities ([12]; Log10 Concentration −6.0): 0.742
Percent Growth ([12]; Log10 Concentration −6.0): 48%
Mean Optical Densities ([12]; Log10 Concentration −7.0): 0.974
Percent Growth ([12]; Log10 Concentration −7.0): 76%
Mean Optical Densities ([12]; Log10 Concentration −8.0): 1.204
Percent Growth ([12]; Log10 Concentration −8.0): 105%
TGI [13]: 3.67E−06
Mean Optical Densities ([13]; Log10 Concentration −4.0): 0.290
Mean Optical Densities ([13]; Log10 Concentration −5.0): 0.218
Mean Optical Densities ([13]; Log10 Concentration −6.0): 1.102
Mean Optical Densities ([13]; Log10 Concentration −7.0): 1.128
TGI [14]: 5.40E−06
Mean Optical Densities ([14]; Log10 Concentration −4.0): 0.330
Mean Optical Densities ([14]; Log10 Concentration −5.0): 0.289
Mean Optical Densities ([14]; Log10 Concentration −6.0): 0.885
Percent Growth ([14]; Log10 Concentration −6.0): 100%
Mean Optical Densities ([14]; Log10 Concentration −7.0): 0.956
Percent Growth ([14]; Log10 Concentration −7.0): 117%
Mean Optical Densities ([14]; Log10 Concentration −8.0): 0.943
Percent Growth ([14]; Log10 Concentration −8.0): 114%
TGI [15]: 3.14E−06
Mean Optical Densities ([15]; Log10 Concentration −4.0): 0.347
Mean Optical Densities ([15]; Log10 Concentration −5.0): 0.127
Percent Growth ([15]; Log10 Concentration −5.0): −69%
Mean Optical Densities ([15]; Log10 Concentration −6.0): 1.126
Percent Growth ([15]; Log10 Concentration −6.0): 68%
Mean Optical Densities ([15]; Log10 Concentration −7.0): 1.447
Percent Growth ([15]; Log10 Concentration −7.0): 98%
Mean Optical Densities ([15]; Log10 Concentration −8.0): 1.502
Percent Growth ([15]; Log10 Concentration −8.0): 103%
TGI [16]: 2.85E−06
Mean Optical Densities ([16]; Log10 Concentration −4.0): 0.212
Mean Optical Densities ([16]; Log10 Concentration −5.0): 0.229
Percent Growth ([16]; Log10 Concentration −5.0): −59%
Mean Optical Densities ([16]; Log10 Concentration −6.0): 1.217
Percent Growth ([16]; Log10 Concentration −6.0): 49%
Mean Optical Densities ([16]; Log10 Concentration −7.0): 1.878
Percent Growth ([16]; Log10 Concentration −7.0): 98%
Mean Optical Densities ([16]; Log10 Concentration −8.0): 1.883
Percent Growth ([16]; Log10 Concentration −8.0): 98%
